Data from patent US20260250257A1, “ANTIBACTERIAL AND SYNERGISTIC ACTIVE COMPOUND AND USE THEREOF” (EAST CHINA UNIVERSITY OF SCIENCE AND TECHNOLOGY, priority 2023, published 2026).
Values after ≈ are worked out from the molar mass of the structure shown.

How the values were obtained:
Type in all cases: cell-based
[1] = tested on: ATCC13883 strain (Klebsiella pneumoniae); assay: Checkerboard antibacterial synergistic activity test with polymyxin E (FIC); design: key: FIC≤0.5 synergy; 0.5–1 additive; 1–2 indifferent; ≥2 antagonism; settings: combined with polymyxin E
Summary of the method: (§1)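 FIC values come from a microdilution checkerboard crossing polymyxin E against the test compound in MH medium, with uninoculated blanks included. Incubation lasts 16 h at 37° C. Scoring: synergy at FIC ≤0.5, additivity between 0.5 and 1, indifference between 1 and 2, antagonism at 2 or above.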

[2] = tested on: ATCC19606 strain (Acinetobacter baumannii); assay: as above; design: key: FIC≤0.5 synergy; 0.5–1 additive; 1–2 indifferent; ≥2 antagonism; settings: combined with polymyxin E
Summary of the method: as §1

[3] = tested on: ATCC25922 strain (Escherichia coli); assay: as above; design: key: FIC≤0.5 synergy; 0.5–1 additive; 1–2 indifferent; ≥2 antagonism; settings: combined with polymyxin E
Summary of the method: as §1

[4] = tested on: ATCC9027 strain (Pseudomonas aeruginosa); assay: as above; design: key: FIC≤0.5 synergy; 0.5–1 additive; 1–2 indifferent; ≥2 antagonism; settings: combined with polymyxin E
Summary of the method: as §1

[5] = tested on: ATCC13883 strain (Klebsiella pneumoniae); assay: Broth microdilution, antibacterial activity of the compound used alone
From the text: (§2) The broth microdilution method was used to test the antibacterial effects of the compounds of the present invention against various Gram-negative bacterial strains when used alone.

[6] = tested on: ATCC19606 strain (Acinetobacter baumannii); assay: as above
From the text: as §2

[7] = tested on: ATCC25922 strain (Escherichia coli); assay: as above
From the text: as §2

[8] = tested on: ATCC9027 strain (Pseudomonas aeruginosa); assay: as above
From the text: as §2

Row | SMILES | Synergistic activity (FIC value) ATCC13883 [1] | Synergistic activity (FIC value) ATCC19606 [2] | Synergistic activity (FIC value) ATCC25922 [3] | Synergistic activity (FIC value) ATCC9027 [4] | Antibacterial activity of the compound of Formula I, ATCC13883 [5] [µg/mL] | Antibacterial activity of the compound of Formula I, ATCC19606 [6] [µg/mL] | Antibacterial activity of the compound of Formula I, ATCC25922 [7] [µg/mL] | Antibacterial activity of the compound of Formula I, ATCC9027 [8] [µg/mL] | MIC ([5]; read-out: Antibacterial activity of the compound of Formula I, ATCC13883) [µg/mL] | MIC ([6]; read-out: Antibacterial activity of the compound of Formula I, ATCC19606) [µg/mL] | MIC ([7]; read-out: Antibacterial activity of the compound of Formula I, ATCC25922) [µg/mL] | MIC ([8]; read-out: Antibacterial activity of the compound of Formula I, ATCC9027) [µg/mL]
1 | O=[N+]([O-])c1ccc(Oc2ccc(I)cc2I)cc1-c1c[se]c(N=C2NCCCN2)n1 [Compound I-158] | 0.16 | 0.03 | 0.18 | 0.28 | 256 | 256 | 256 | 256 | – | – | – | –
2 | CSc1cc2cc(C)ccn2c1-c1csc(N=C(N)N)n1 [Compound I-125] | 0.16 | 0.03 | 0.18 | 0.28 | 256 | 256 | 256 | 256 | – | – | – | –
3 | NC(N)=Nc1nc(-c2ccccc2Oc2ccccc2I)cs1 [Compound I-86] | 0.19 | 0.38 | 0.04 | 0.04 | – | – | – | – | 256 (≈ 587 µM) | 256 (≈ 587 µM) | 256 (≈ 587 µM) | 256 (≈ 587 µM)
4 | NC(N)=Nc1nc(-c2cc(Cl)cc(Cl)c2)cs1 [Compound I-39] | 1.25 | 0.75 | 1.25 | 1.25 | 128 | 256 | 128 | 64 | – | – | – | –
5 | Clc1ccc(Oc2cc(Cl)ccc2-c2c[nH]c(N=C3NCCCN3)n2)c(Cl)c1 [Compound I-150] | 0.09 | 0.31 | 0.14 | 0.06 | 256 | 256 | 256 | 256 | – | – | – | –
6 | CCc1oc(N=C2NCCCN2)nc1-c1cccc(C(C)C)c1 [Compound I-165] | 0.31 | 0.13 | 0.38 | 0.53 | 256 | 256 | 256 | 256 | – | – | – | –
7 | NC(N)=Nc1nc(-c2ccc(I)cc2)cs1 [Compound I-33] | 0.25 | 0.28 | 0.5 | 0.63 | 256 | 256 | 256 | 256 | – | – | – | –
8 | NC(N)=Nc1nc(-c2c(I)cc(I)cc2I)cs1 [Compound I-54] | 0.33 | 0.15 | 0.39 | 0.62 | 256 | 256 | 256 | 256 | – | – | – | –
9 | CCc1sc(N=C2NCCCN2)nc1-c1c(SC)cc2ccc(C)cn12 [Compound I-193] | 1.25 | 1.25 | 0.53 | 1.25 | 256 | 256 | 256 | 256 | – | – | – | –
10 | NC(N)=Nc1nc(-c2cccc3ccsc23)c[nH]1 [Compound I-69] | 1.25 | 1.25 | 1.25 | 0.51 | 256 | 256 | 256 | 256 | – | – | – | –
11 | Cc1cccc2cccc(-c3csc(N=C(N)N)n3)c12 [Compound I-57] | 0.25 | 0.3 | 0.5 | 0.63 | 256 | 256 | 256 | 256 | – | – | – | –
12 | NC(N)=Nc1nc(-c2ccc3cccnc3c2)cs1 [Compound I-68] | 1.25 | 0.51 | 1.25 | 1.25 | 256 | 256 | 256 | 256 | – | – | – | –
13 | NC(N)=Nc1nc(-c2ccc(C(F)(F)F)cc2)cs1 [Compound I-43] | 1.25 | 1.25 | 0.5 | 0.63 | 256 | 256 | 256 | 256 | – | – | – | –
14 | NC(N)=Nc1nc(-c2ccc(OS(N)(=O)=O)cc2)co1 [Compound I-29] | 1.25 | 0.26 | 1.25 | 1.25 | 256 | 256 | 256 | 256 | – | – | – | –
15 | CS(=O)(=O)c1ccc(Oc2ccccc2-c2nc(N=C(N)N)sc2Cl)cc1 [Compound I-103] | 1.25 | 1.25 | 0.53 | 1.25 | 256 | 256 | 256 | 256 | – | – | – | –
